Experimental data published in the METLIN SMRT retention time set (Domingo-Almenara et al. 2019).

Test: gradient 5% acetonitrile 3 min, to 50% in 2 min, to 85% in 15 min, held 3 min, 100 µL/min
Conditions: column: Zorbax Extend-C18 2.1 x 50 mm; eluents: water / acetonitrile, 0.1% formic acid
Method in brief: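 A Zorbax Extend-C18 column (2.1 × 50 mm, 1.8 μm) run at 100 μL/min with water and acetonitrile, both containing 0.1% formic acid, separated mixtures of ~100 pure standards. The HPLC was coupled to a quadrupole time-of-flight mass spectrometer operated in positive and negative ionization mode, with dead and dwell volumes of 40 μL and 900 μL. Each retention time was taken from a computationally picked adduct peak that was then manually inspected.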

COC(=O)c1c(NCCc2ccccc2)c2cc(F)ccc2[nH]c1=O
RP-LC retention time: 791 s

CNC(=O)Cn1nc(C2CCN(C(=O)c3ccc(F)cc3)CC2)c2c1CCOC2
RP-LC retention time: 614 s

Cc1ccc(NC(=O)C2CC(=O)N(c3n[nH]c4cccc(F)c34)C2)c(C)c1 (centres undefined)
RP-LC retention time: 770 s

C(=C\c1ccccc1)/CN1CCN(C(c2ccccc2)c2ccccc2)CC1
RP-LC retention time: 972 s

COc1ccc(CNC(=O)c2cn3ccc(C)cc3n2)cc1
RP-LC retention time: 545 s

CCc1nc(-c2cc(S(=O)(=O)N3CCC(C(=O)N4CCN(CC)CC4)CC3)c(C)s2)no1
RP-LC retention time: 673 s

Cc1noc(CNC(=O)CCCN2C(=O)c3ccccc3C2=O)n1
RP-LC retention time: 633 s

O=C(CSc1nnc(-c2ccc(Br)cc2)o1)OCc1ccccc1
RP-LC retention time: 1150 s

CCn1cnc2c1CN(C(=O)c1ccc3c(c1)OCO3)CC2
RP-LC retention time: 564 s

Nc1ccc(SCC(=O)Nc2nc(-c3ccccc3)cs2)cc1
RP-LC retention time: 817 s

CCOC(=O)C1CCN(c2cc3c(cc2NC(=O)NC(C)CC)n(C)c(=O)n3C)CC1 (centres undefined)
RP-LC retention time: 778 s

Cc1ccc(Cl)cc1N1CCN(C(=O)c2[nH]c(C)c(S(=O)(=O)N3CCC(C)CC3)c2C)CC1
RP-LC retention time: 1190 s

COc1nccnc1NC1CCN(C(=O)c2ccc(C#N)cc2)CC1
RP-LC retention time: 804 s

CCOc1ccc(-c2csc3c(=O)n(Cc4ccc(Br)cc4)cnc23)cc1OCC
RP-LC retention time: 1210 s

Cc1ccc(N(C)S(=O)(=O)c2cc(-c3[nH]ncc3C(=O)N(C)C)oc2C)cc1
RP-LC retention time: 729 s

Cc1ccc(NC(=O)N2CCC3(CC2)NC(=O)c2cc(Cl)ccc2N3C)cc1C
RP-LC retention time: 904 s

O=C(NCCS(=O)(=O)N1CCc2ccccc2C1)C1CC1
RP-LC retention time: 695 s

CCOc1cc(=O)n2c(c1C(=O)Nc1ccc(C#N)cc1)CCCC2
RP-LC retention time: 708 s

CCN1CCCC1CNC(=O)C1CCN(S(=O)(=O)c2ccc3c(ccn3CC)c2)CC1 (centres undefined)
RP-LC retention time: 664 s

CCn1cnc2cc(-c3noc(C(NC(=O)c4ccco4)C(C)C)n3)ccc21 (centres undefined)
RP-LC retention time: 666 s

Cc1ccc(NS(=O)(=O)c2n[nH]c(C)c2C(=O)NCc2ccc(F)cc2F)cc1
RP-LC retention time: 821 s

COCc1nncn1C1CCN(C(=O)C2(c3ccccc3)CC2)CC1
RP-LC retention time: 650 s

Cc1ccc(S(=O)(=O)CCc2noc(C(=O)NCCN3CCC(C)CC3)n2)cc1
RP-LC retention time: 631 s

Cn1c(=O)oc2cc(-c3noc(-c4cc(F)ccc4Cl)n3)ccc21
RP-LC retention time: 1090 s

COc1ccc(C)cc1NC(=O)C1CCN(S(C)(=O)=O)c2cc(C)ccc2O1 (centres undefined)
RP-LC retention time: 1030 s

COCCNC(=O)Cn1c(=O)n(-c2ccccc2)c2ncccc21
RP-LC retention time: 634 s

Cn1nc(-c2nc(Cc3ccccc3)no2)c2c1CCN(C(=O)Nc1ccccc1)C2
RP-LC retention time: 905 s

COc1ccc(-n2cc(C(=O)O)c3c2C(C(F)(F)F)CC(=O)N3)c(OC)c1 (centres undefined)
RP-LC retention time: 731 s

CC(C)Cc1noc(C2(F)CCN(S(=O)(=O)c3ccccc3Cl)CC2)n1
RP-LC retention time: 674 s

CC(C)Oc1ccc(CNC(=O)CN2CCN(Cc3ccc(F)cc3)C2=O)cc1
RP-LC retention time: 865 s

O=C(CC1CCN(C(=O)c2cc3ccccc3[nH]2)CC1)NCCN1CCCC1
RP-LC retention time: 559 s

O=C(Nc1ccc(F)cc1)C1CCN(S(=O)(=O)c2cc(-c3noc(C4CC4)n3)cs2)CC1
RP-LC retention time: 1010 s

CNC(=O)N1C[C@@H](CN(C)C)[C@H](NC(=O)C2(c3ccc(OC)cc3)CC2)C1
RP-LC retention time: 572 s

CCCCOc1ccc(NC(=O)c2oc3ccc(C)cc3c2C)c2cccnc12
RP-LC retention time: 923 s

Cc1cnc(C(=O)N2CCCCCCNC(=O)[C@@H]3CCC[C@@H]32)cn1
RP-LC retention time: 649 s

O=S(=O)(c1ccc(-c2cc(C(F)(F)F)on2)s1)N1CCN(c2ccccn2)CC1
RP-LC retention time: 883 s

O=C(NCc1ccc(-c2noc(Cc3cccc(F)c3)n2)s1)C1CC1
RP-LC retention time: 879 s

CCc1cccc(-n2nnc(C(=O)N3CCC4(CC3)OCCO4)c2-c2ccncc2)c1
RP-LC retention time: 744 s

O=C(Nc1ccc2c(c1)OCCO2)c1cc(-c2ccncc2)n[nH]1
RP-LC retention time: 606 s

Cc1ccc(CC(=O)N2CCN(c3cc(-c4cccs4)[nH]n3)CC2)cc1
RP-LC retention time: 758 s

Cc1ncsc1C1N(C2CCN(C(=O)Cn3ccnc3)CC2)C(=O)C12CCCC2 (centres undefined)
RP-LC retention time: 594 s

CCNc1cc(N2CCCC(CCC(=O)NC(C)c3cn(C)nc3C)C2)ncn1 (centres undefined)
RP-LC retention time: 592 s

O=C1CN(Cc2ccco2)C2CS(=O)(=O)CC2N1c1ccc(Cl)cc1 (centres undefined)
RP-LC retention time: 714 s

Cc1ccc(-c2cc3c4nnc(SCC(=O)Nc5ccc(F)cc5Cl)n4ccn3n2)cc1C
RP-LC retention time: 1010 s
